Reference: PubChem BioAssay (NCI)
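Exposure lasted 48 hours, with cells grown in 96-well plates and compounds tested at five concentrations. GI50 = concentration required for 50% inhibition of growth. TGI denotes the concentration required for complete inhibition of growth.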

Assays:
Assay in all cases: DTP human tumour cell line panel, 48 h
UACC-62 melanoma = system: UACC-62 melanoma
OVCAR-4 ovarian = system: OVCAR-4 ovarian
M14 melanoma = system: M14 melanoma
NCI-H23 lung = system: NCI-H23 lung
HOP-62 NSCLC = system: HOP-62 NSCLC
SNB-75 CNS = system: SNB-75 CNS
MDA-MB-231 breast = system: MDA-MB-231 breast
LOX IMVI melanoma = system: LOX IMVI melanoma
NCI-H522 lung = system: NCI-H522 lung
SK-MEL-2 melanoma = system: SK-MEL-2 melanoma

Row | SMILES | TGI (UACC-62 melanoma) [µM] | TGI (OVCAR-4 ovarian) [µM] | TGI (M14 melanoma) [µM] | TGI (NCI-H23 lung) [µM] | TGI (HOP-62 NSCLC) [µM] | TGI (SNB-75 CNS) [µM] | TGI (MDA-MB-231 breast) [µM] | TGI (LOX IMVI melanoma) [µM] | TGI (NCI-H522 lung) [µM] | TGI (SK-MEL-2 melanoma) [µM] | GI50 (OVCAR-4 ovarian) [µM] | GI50 (M14 melanoma) [µM] | GI50 (SK-MEL-2 melanoma) [µM] | GI50 (NCI-H23 lung) [µM] | GI50 (HOP-62 NSCLC) [µM] | GI50 (NCI-H522 lung) [µM]
1 | CC1(C)C=C(/C=N/Nc2ccccc2)C(C#N)=C(O)C1(C#N)C#N | > 100 | > 100 | > 100 | > 100 | > 100 | > 100 | > 100 | > 100 | > 100 |  |  |  |  |  |  | 
2 | C=C1CC(C)(c2cccc(Nc3nc4ccccc4c4occc34)c2)OC1=O (configuration not stated) | 2.43 | 20.4 | 7.26 |  | 25.9 | 18.3 | 23.1 |  |  |  |  |  |  |  |  | 
3 | CC1(C)Oc2ccc3c(=O)cc(-c4ccccc4)oc3c2C1C(=O)O (configuration not stated) | > 100 | > 100 | > 100 | > 100 | > 100 |  | > 100 |  | > 100 | > 100 |  |  |  |  |  | 
4 | COC(=O)Cn1cnc2c(Cl)nc(Nc3ccccc3)nc21 | 67.2 | > 100 | > 100 |  | > 100 | > 100 | > 100 | 41.4 |  | 48.8 |  |  |  |  |  | 
5 | Clc1ccc(C2=CCN3CC=C(c4ccc(Cl)cc4)C23)cc1 | 21.2 | 26.1 | 22.6 | 26.8 | 26.7 |  | 25 | 20.6 | 22.8 | 29.6 |  |  |  |  |  | 
6 | CSc1cnc2ccccc2c1Sc1c[nH]c2ccccc2c1=O | 25.1 | 33 | 27.2 | 36.7 | 43.6 | 10.3 |  | 67.2 | 11 | 34.6 |  |  |  |  |  | 
7 | Oc1ccc(Oc2cc3c(cc2Oc2ccc(O)cc2)-c2nc-3nc3[nH]c(nc4nc(nc5[nH]c(n2)c2cc(Oc6ccc(O)cc6)c(Oc6ccc(O)cc6)cc52)-c2cc(Oc5ccc(O)cc5)c(Oc5ccc(O)cc5)cc2-4)c2cc(Oc4ccc(O)cc4)c(Oc4ccc(O)cc4)cc32)cc1 | > 100 | > 100 | 30.3 | > 100 | > 100 | > 100 | 52.4 | > 100 | > 100 |  |  |  |  |  |  | 
8 | Cc1c2ccncc2c(C)c2c1[nH]c1ccc(OCCN(C)C)cc12 | 2.35 | 0.368 |  | 1.22 | 1.95 | 1.31 |  | 0.396 | 1.16 | 1.87 |  |  |  |  |  | 
9 | CC(=O)OC[C@H]1On2nnnc2[C@H](OC(C)=O)[C@@H](OC(C)=O)[C@@H]1OC(C)=O | > 100 | > 100 |  | > 100 | > 100 | > 100 | > 100 | > 100 | > 100 | > 100 |  |  |  |  |  | 
10 | COc1ccc(C(=O)/C=C/c2cc(-c3cc(OC)c(OC)c(OC)c3)n[nH]2)cc1 |  | 8.32 | 4.93 | 12.2 | 3.77 |  |  |  | 3.2 | 19.6 | 2.2 | 2.2 | 4.14 | 3.04 | 1.76 | 1.47
11 | S=C1SC(=Nc2ccccc2)C(=Nc2ccccc2)N1c1ccc2ccccc2c1 | > 100 | > 100 | > 100 | > 100 | > 100 | > 100 | > 100 |  | > 100 | > 100 |  |  |  |  |  | 
12 | CC(C)=CCC[C@@H](C)C1=C(O)C(Nc2ccccc2I)=C(C)C(=O)C1=O | 31.3 | > 75 | > 58.9 | 38.9 | 23.1 | 37.1 | > 75 | > 75 |  | 29.4 |  |  |  |  |  | 
13 | COc1cc(Oc2nc3cc(F)c(F)cc3nc2-c2ccccc2)cc(OC)c1OC | > 100 | > 100 | > 100 | > 100 | > 100 | 51.2 |  | > 100 | > 100 | > 100 |  |  |  |  |  | 
14 | O=c1c2ccccc2nc2ccc3c(Cl)[nH][nH]c3c12 | > 77.7 | > 100 | > 100 | > 100 | > 100 | > 100 |  | 58.3 | > 83.1 | > 100 |  |  |  |  |  | 
15 | CCC(=O)OC1CCn2c1nc1c2C(=O)C(C)=C(NC(C)=O)C1=N (configuration not stated) | 2.71 | 2.66 |  | 3.23 | 3.47 | 4.45 |  | 3 | 2.79 | 3.43 |  |  |  |  |  | 
16 | CC1=CCC[C@H]2[C@](C)(CC3=CC(=O)C(SCC(C)C)=CC3=O)[C@@H](C)CC[C@]12C | 28.8 | 31.8 | 34.7 | 25.5 | 31 | 23.8 | > 64 | 24.6 |  | 31 |  |  |  |  |  | 
17 | Clc1cc(Cl)ncn1 | > 100 | > 100 | > 100 | > 100 | > 100 | > 100 | > 100 | > 100 | > 100 |  |  |  |  |  |  | 
18 | O=C1C2C=CC(n3[nH]c(=O)n(Cc4ccccc4)c3=O)CC2C(=O)N1c1ccc(Br)cc1 (configuration not stated) | > 100 | > 100 | > 100 | > 100 | > 100 | > 100 |  | > 100 | > 100 | > 100 |  |  |  |  |  | 
19 | Cc1c([C@H](C)[C@@H]2NC[C@@H](C)C[C@H]2O)ccc2c1C[C@H]1[C@H]2CC=C2C[C@@H](O)CC[C@@]21C | 28.1 | 40 | 31.4 | 37.9 | 96.4 | 51.7 | 35.4 | 27 | 36.6 |  |  |  |  |  |  | 
20 | Cc1cc(-c2nc3cccc(O)c3s2)ccc1N | 33.1 |  | 37.7 | 93 | > 100 | > 100 | > 100 | > 100 |  | > 100 |  |  |  |  |  | 
21 | COc1ccc(C)cc(=O)c1O | > 100 | > 100 | > 100 | > 100 | > 100 | > 100 |  | 79.7 | 84.8 | > 100 |  |  |  |  |  | 
22 | CCCCCCCCOc1ccc(/C=C/C2=[N+](CCO)CCO2)cc1 | 17.2 | 14.2 | 20 | 5.28 | 39.8 | 9.2 | 11.4 |  | 6.25 | 7.26 |  |  |  |  |  | 
23 | O=C(c1ccc(Cl)cc1)N1CCN=C1c1cc2ccccc2c2ccccc12 | 27.7 | 27.7 | > 100 | 32.7 | 33.3 | 25.7 | 29.9 | 36.1 |  | 31.4 |  |  |  |  |  | 
